Data: publication PMC9115881, “Penicillin Derivatives Inhibit the SARS-CoV-2 Main Protease by Reaction with Its Nucleophilic Cysteine” (Journal of Medicinal Chemistry, 2022)
“Also recorded” adds a separate entry of the source.

Experiments:
SARS-CoV-2 M^pro [1] = target: T1, SARS-CoV-2 M^pro (Severe acute respiratory syndrome coronavirus 2, UniProt P0DTD1); assay: biochemical; assay type: biochemical; conditions: for IC50: M^pro […], 37mer substrate 2.0 μM, mean ± SD, n ≥ 2, read-out: IC50
SARS-CoV-2 M^pro [2] = target: T1, SARS-CoV-2 M^pro; assay: SPE-MS M^pro inhibition assay, 11mer peptide substrate; assay type: biochemical
SARS-CoV-2 M^pro [3] = target: T1, SARS-CoV-2 M^pro; assay: Protein-observed M^pro assay (SPE-MS), covalent modification; assay type: binding; conditions: M^pro 2.0 μM, inhibitor 11 or 33 μM, 45 min
Experimental: Selected compounds were tested for reaction with M^pro using protein-observed MS to inform on their mechanism of inhibition (Figure 2). Initially, M^pro was incubated with a ∼6-fold excess of the penicillin sulfone ester for 45 min and then analyzed by MS. […] When the inhibitor concentration was increased to ∼17-fold to account for the possibility of modifying all 12 M^pro cysteine or other residues, only low levels of a second covalent M^pro modification by the inhibitors were observed (Figure 2A–C). No evidence for fragmentation of the inhibitors once bound to M^pro was accrued.
Solutions of the inhibitors (100% DMSO) were dry-dispensed across 384-well polypropylene assay plates (Greiner) (for 11 or 33 μM top concentrations) using an ECHO 550 acoustic dispenser (Labcyte). DMSO was used as a negative control. Each reaction was performed in technical duplicates. The enzyme mixture (50 μL/well), containing M^pro (2.0 μM) in buffer (20 mM HEPES, pH 7.5), was dispensed across the penicillin-containing 384-well assay plates with a multidrop dispenser (Thermo Fischer Scientific). The reaction mixture was incubated for 45 min at 20 °C under an ambient atmosphere prior to analysis by SPE-MS.
MS analyses were performed using a RapidFire RF 365 high-throughput sampling robot (Agilent) attached to an iFunnel Agilent 6550 accurate mass Q-TOF mass spectrometer using a C4 cartridge and the same parameters as described above, with the exception of the gas temperature that was reduced to 225 °C. Protein spectra were deconvoluted for the m/z range 850–1350 Da, with a resolution of 2 Da and with a 10–60 kDa cutoff using the MaxEnt1 function in Agilent MassHunter Version 7. The deconvoluted files were extracted as csv files, sorted using Enthought Canopy GUI, and normalized and plotted using GraphPad Prism 9.

[4] = target: T2, active site (Cys145) TPCK-blocked M^pro (Severe acute respiratory syndrome coronavirus 2, UniProt P0DTD1); assay: Protein-observed M^pro assay after preincubation with TPCK; assay type: binding, SARS-CoV-2; conditions: M^pro 2.0 μM preincubated with TPCK 10 μM for 180 min, then inhibitor 60 min
T2 construct: employing SARS-CoV-2 M^pro (2.0 μM); made in house

SARS-CoV-2 M^pro [5] = target: T1, SARS-CoV-2 M^pro; conditions: earlier SPE-MS M^pro assay; cited from earlier work
SARS-CoV-2 M^pro [6] = target: T1, SARS-CoV-2 M^pro; assay: Cocrystallization with M^pro, crystal structure; conditions: 2.0 Å resolution, PDB 7Z59
Text: To investigate the mode of M^pro inhibition by penicillin derivatives, we carried out crystallographic studies and obtained a structure of M^pro complexed with a penicillin sulfone 20e-derived ligand following cocrystallization (C2 space group, 2.0 Å resolution; Supporting Information Figure S7). The structure was solved by molecular replacement using a reported M^pro structure (PDB ID: 6YB7([29])) as a search model. The overall fold of the structure is similar to those previously reported for M^pro (RMSD = 0.41 Å for M^pro complexed with PF-07321332 (8, nirmatrelvir; PDB ID: 7VH8);[68] Supporting Information Figure S7).
A frozen SARS-CoV-2 M^pro solution was thawed and diluted to 6 mg/mL (using 20 mM HEPES, pH 7.5, 50 mM NaCl). β-Lactam 20e was added to the protein solution to a final concentration of 10 mM; the mixture was incubated for 2 h at ambient temperature prior to dispensing the plates. The drop composition was: 0.15 μL protein–ligand solution, 0.3 μL 11%v/v PEG 4000, 0.1 M MES, pH 6.5, and 0.05 μL M^pro crystal seed stock. A M^pro crystal seed stock was prepared by crushing M^pro crystals with a pipette tip, suspending them in 30% PEG 4000, 5%v/v DMSO, 0.1 M MES pH 6.5, and vortexing for 60 s with approximately 10 glass beads (1.0 mm diameter, BioSpec products). The reservoir solution was: 11%v/v PEG 4K, 5%v/v DMSO, 0.1 M MES, pH 6.5. […]

[7] = Table 3, compounds 25c, 25g: 11mer peptide as substrate, M^pro […], substrate 2.0 μM, read-out: IC50

CC1(C)[C@H](C(=O)OCc2ccccc2)N2C(=O)[C@@H](NC(=O)COc3ccccc3)[C@H]2S1(=O)=O [Compound 10, penicillin V sulfone benzyl ester]
IC50 (SARS-CoV-2 M^pro [1]; Table 1, 15 min preincubation): 6.6 ± 2.7 µM
IC50 (SARS-CoV-2 M^pro [1]; Table 3): 6.6 ± 2.7 µM
IC50 (SARS-CoV-2 M^pro [2]; Table S1, M^pro 0.15 μM, TSAVLQ/SGFRK-NH2 2.0 μM, technical duplicates n = 2, mean ± SD, read-out: IC50 [μM] (11mer peptide)): 8.7 ± 0.2 µM
covalent modification of M^pro by protein-observed MS (SARS-CoV-2 M^pro [3]): covalent reaction with Cys145; also recorded: covalent reaction with a single nucleophilic protein residue; also recorded: clear evidence for the covalent reaction
covalent reaction with TPCK-pretreated M^pro by protein-observed MS [4]: reaction is ablated by pretreatment of M^pro with the active site binding inhibitor TPCK; also recorded: do not efficiently react covalently
M^pro inhibition, reported result in words (SARS-CoV-2 M^pro [5]): inhibits M^pro by reaction with the active site cysteine residue

CC1(C)[C@H](C(=O)OCc2ccccc2)N2C(=O)[C@@H](NC(=O)Cc3ccccc3)[C@H]2S1(=O)=O [Compound 11, penicillin G sulfone benzyl ester]
M^pro inhibition, result in words (SARS-CoV-2 M^pro [1]; SPE-MS inhibition assay): did not inhibit M^pro
IC50 (SARS-CoV-2 M^pro [1]; Table 3): > 50 µM
M^pro inhibition, reported result in words (SARS-CoV-2 M^pro [5]): inactive

CC1(C)[C@H](C(=O)OCc2ccccc2)N2C(=O)[C@H](NC(=O)COc3ccccc3)[C@H]2S1(=O)=O [Compound 16, (6S)-penicillin V sulfone benzyl ester]
IC50 (SARS-CoV-2 M^pro [2]; Table 1, compounds 15, 16: 11mer peptide as substrate, M^pro […], substrate 2.0 μM, read-out: IC50): > 50 µM

CC1(C)[C@H](C(=O)OCc2ccc(F)cc2F)N2C(=O)[C@@H](NC(=O)COc3ccccc3)[C@H]2S1(=O)=O [Compound 20e]
covalent modification seen in the crystal structure (SARS-CoV-2 M^pro [6]): active site Cys145 S-acylation

C#CCOC(=O)[C@@H]1N2C(=O)[C@@H](NC(=O)COc3ccccc3)[C@H]2S(=O)(=O)C1(C)C [Compound 20q]
IC50 (SARS-CoV-2 M^pro [1]; Table 2): 3 ± 0.4 µM
covalent modification of M^pro by protein-observed MS (SARS-CoV-2 M^pro [3]): covalent reaction with Cys145; also recorded: covalent reaction with a single nucleophilic protein residue; also recorded: clear evidence for the covalent reaction
covalent reaction with TPCK-pretreated M^pro by protein-observed MS [4]: reaction is ablated by pretreatment of M^pro with the active site binding inhibitor TPCK; also recorded: do not efficiently react covalently

Cc1onc(-c2c(Cl)cccc2Cl)c1C(=O)N[C@@H]1C(=O)N2[C@@H](C(=O)OCc3ccccc3)C(C)(C)S(=O)(=O)[C@H]12 [Compound 25c]
IC50 (SARS-CoV-2 M^pro [2]; [7]): > 50 µM

CCN1CCC(NC(=O)N[C@@H](C(=O)N[C@@H]2C(=O)N3[C@@H](C(=O)OCc4ccccc4)C(C)(C)S(=O)(=O)[C@H]23)c2ccccc2)C(=O)C1=O (some centres unmarked) [Compound 25g]
IC50 (SARS-CoV-2 M^pro [2]; [7]): > 50 µM

CC1(C)[C@H](C(=O)O)N2C(=O)C[C@H]2S1(=O)=O [Compound 33, sulbactam, reference compound]
M^pro inhibition, reported result in words (SARS-CoV-2 M^pro [5]): inability of sulbactam to inhibit M^pro
